Measurements as given in patent EP0102564A2, “Method for the removal of toxins bound to protein or lipid from blood or blood fractions, and use of certain compounds as liberating agents” (FRAUNHOFER-GESELLSCHAFT ZUR FÖRDERUNG DER ANGEWANDTEN …, priority 1982, dated 1984).
Read-outs that look alike come from different tables or passages of the source.

Key:
[1] = test system: Plasmaproteine; conditions: cited from earlier work
[2] = target: T1, BSA (Bos taurus, UniProt P02769); assay: Adsorption of protein-bound ET on activated carbon without prior release, BSA; set-up: species or system Rind; conditions: K = 110, added after removal of carbon; BSA and HSA samples
Method: (§1) Um die Leistungsfähigkeit der ET-Entfernung nach vorhergehender Abkopplung von Protein beurteilen zu können, wurde die Adsorptionskinetik ohneverwendung eines Entkopplers untersucht. Dazu wurden im Batchversuch Proben, die 40 mg BSA oder HSA auf 1 ml ET-Lösung (2170/umol ET/ 1 PBS) enthielten, über Nacht auf einem Rollermixer inkubiert. Nach Einstellen des Gleichgewichts wurde am nächsten Tag die Konzentration an ET bestimmt. Sie lag für BSA bei ca. 11% und für HSA bei ca. 21% der Ausgangskonzentration. Zu beiden Proben wurden 30 mg SCII (vorher in PBS entgast) zugegeben und die freie ET-Konzentration fortlaufend gemessen. Nach 45 Minuten wurden die AK entfernt und Cystein zugegeben. […] Fig. 6 zeigt den Verlauf der ET-Konzentration. Die Probe, die HSA enthielt, wies eine Abnahme der ET-Menge durch Adsorption von 78% auf, die Probe mit BSA lediglich von ca. 68%. Dieses Ergebnis deckt sich mit der Beobachtung,daß ET stärker an BSA gebunden ist als an HSA. Damit konnte gezeigt werden, daß proteingebundenes ET durch Aktivkohle entfernt werden kann. Die Restkonzentration liegt jedoch relativ hoch, und die Kinetik ist langsam.

[3] = target: T2, Ethanthiol-Protein-Komplex (BSA) (Bos taurus, UniProt P02769); assay: Variation of the uncoupler amount, release of ET from BSA; set-up: species or system Rind; conditions: compared with reduced Glutathion
T2 construct: Rinderserumalbumin (BSA, bovine serum albumin); purchased Behring, Marburg
Method: Um die Wirksamkeit der beiden Entkoppler vergleichen zu können, wurden Proben mit 40 mg BSA auf 1 ml ET-Lösung (2170/umol ET/1 PBS) über Nacht bei 37 °C inkubiert. Nach dieser Zeit betrug die freie Thiolkonzentration ca. 2 bis 5% der Ausgangskonzentration. Nach der Zugabe unterschiedlicher Entkoppler-Mengen wurde die Freisetzung des ET gaschromatographisch verfolgt. Fig. 3 und 4 zeigen den Verlauf der ET-Konzentration als Funktion der Zeit. Die Zugabe des Entkopplers erfolgte zum Zeitpunkt t = o. Der Parameter K entspricht dem molaren Verhältnis zwischen eingesetzter Entkoppler-Menge und eingesetzter ET-Thiolmenge.

[4] = test system: Plasma; assay: Removal of protein-bound ET from plasma; conditions: for Restkonzentration an ET nach Adsorption an AK mit vorheriger Freisetzung durch Entkoppler: 30 mg AK, 45 min, relative to initial value
[5] = target: T1, BSA; assay: Adsorption of ET on activated carbon after prior release by uncoupler, BSA, batch; set-up: species or system Rind; conditions: for adsorbierte Menge nach 45 Minuten: uncoupler pre-adsorbed on SCII, then 30 mg AK
Method: In dieser Versuchsreihe wurde das Zusammenwirken aller bisher betrachteten Parameter im Batch erprobt. 1 ml ET-Lösung (2170/umol ET/1 PBS) wurden für ca. 18 Stunden bei 37°C mit 40 mg BSA inkubiert. Nach dieser Zeit beträgt die ET-Konzentration lediglich 5% des Ausgangswerts (d.h. 95% des ET sind an das BSA gebunden). Nun erfolgte die Zugabe von 150/ul Entkoppler (K-Cystein = 115, Fig. 7, Kurve a; K-Glutathion = 30, Fig. 8, Kurve a). Die Abkopplung des ET wird verfolgt, bis keine Zunahme der ET-Konzentration mehr eintritt. Bei der Verwendung von Cystein erfolgt die Freisetzung schneller als bei Glutathion.
Nun wurden 30 mg SCII (vorher in PBS entgast) zu den Proben hinzugegeben. Die ET-Konzentration nimmt nun rasch ab. Die gesamte Restmenge beträgt nach 45 Minuten nur noch ca. 5% des Anfangswerts. Es wurden also 95% der vorgegebenen Thiolmenge von 30 mg AK entfernt.
In einer weiteren Versuchsreihe wurde untersucht, ob der Entkoppler auch wirksam ist, wenn er zuvor an Aktivkohle adsorbiert wurde. Dazu wurden 30 mg SCII mit den Entkoppler-Lösungen 2 Stunden inkubiert. Diese vorbeladene Kohle wurde dann statt der Entkoppler-Lösung eingesetzt. Fig. 7 und 8 (jeweils Kurve b) zeigen den Abkopplungsvorgang. Die freie ET-Konzentration steigt in beiden Fällen nicht auf den Anfangswert an. Dem Freisetzungsprozeß ist eine Adsorption überlagert. Sie liegt bei AK-Glutathion um ca. 50% tiefer als bei AK-Cystein. Nach Zugabe von 30 mg AK (in PBS entgast) fällt die ET-Konzentration schnell ab. Nach 45 Minuten beträgt die adsorbierte Menge bei Verwendung von Cystein ca. 97%, bei Verwendung von Glutathion ca. 95%.

[6] = Removal of protein-bound ET from plasma
[7] = target: T3, Fibrinogen (Bos taurus, UniProt P02672+P02676+P12799)
T3 sequence (P02672 20-615): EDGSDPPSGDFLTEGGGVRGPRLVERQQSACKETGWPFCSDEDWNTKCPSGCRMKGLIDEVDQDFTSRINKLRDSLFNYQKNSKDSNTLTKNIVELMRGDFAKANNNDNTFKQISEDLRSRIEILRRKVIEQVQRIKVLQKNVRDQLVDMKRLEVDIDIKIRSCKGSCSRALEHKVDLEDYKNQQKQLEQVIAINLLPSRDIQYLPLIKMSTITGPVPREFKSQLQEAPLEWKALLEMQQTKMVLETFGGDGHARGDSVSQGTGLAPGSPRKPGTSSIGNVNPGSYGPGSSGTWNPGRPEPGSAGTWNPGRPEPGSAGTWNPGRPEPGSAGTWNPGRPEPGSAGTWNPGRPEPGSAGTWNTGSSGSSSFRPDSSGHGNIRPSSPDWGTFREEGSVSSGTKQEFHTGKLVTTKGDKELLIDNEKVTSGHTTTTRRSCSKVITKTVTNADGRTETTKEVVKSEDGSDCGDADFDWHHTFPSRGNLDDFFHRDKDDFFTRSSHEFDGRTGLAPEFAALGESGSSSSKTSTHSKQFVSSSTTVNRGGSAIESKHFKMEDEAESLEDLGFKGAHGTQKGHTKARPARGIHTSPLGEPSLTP
T3 sequence (P02676 1-468): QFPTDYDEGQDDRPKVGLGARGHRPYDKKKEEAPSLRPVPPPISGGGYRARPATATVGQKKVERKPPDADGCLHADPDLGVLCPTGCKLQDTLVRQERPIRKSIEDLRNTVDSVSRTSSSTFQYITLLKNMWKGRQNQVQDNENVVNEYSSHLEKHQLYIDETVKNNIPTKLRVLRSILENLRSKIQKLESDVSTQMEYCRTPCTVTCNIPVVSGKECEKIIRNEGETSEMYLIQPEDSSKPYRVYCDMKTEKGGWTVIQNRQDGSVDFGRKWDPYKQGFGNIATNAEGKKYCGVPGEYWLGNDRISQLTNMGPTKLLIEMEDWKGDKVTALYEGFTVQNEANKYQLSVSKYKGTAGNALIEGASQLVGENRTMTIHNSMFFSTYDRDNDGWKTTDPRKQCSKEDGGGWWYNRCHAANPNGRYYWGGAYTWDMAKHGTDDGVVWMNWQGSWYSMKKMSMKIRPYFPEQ
T3 sequence (P12799 25-444): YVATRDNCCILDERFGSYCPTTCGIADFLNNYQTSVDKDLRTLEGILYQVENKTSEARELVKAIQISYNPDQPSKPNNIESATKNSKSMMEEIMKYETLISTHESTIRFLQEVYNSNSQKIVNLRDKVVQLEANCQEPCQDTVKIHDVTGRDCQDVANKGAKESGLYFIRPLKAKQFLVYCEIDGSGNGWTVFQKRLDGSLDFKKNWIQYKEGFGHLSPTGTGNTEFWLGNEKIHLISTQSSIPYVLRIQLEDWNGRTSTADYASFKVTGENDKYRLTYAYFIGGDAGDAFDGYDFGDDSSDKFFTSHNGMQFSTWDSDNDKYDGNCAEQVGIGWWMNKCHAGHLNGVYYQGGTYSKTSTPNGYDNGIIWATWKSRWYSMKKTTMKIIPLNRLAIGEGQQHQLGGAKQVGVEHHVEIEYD

[8] = target: T1, BSA; assay: in vitro; conditions: bovine
[9] = target: T1, BSA; assay: Binding of Ethanthiol to BSA, gas chromatography (headspace)
[10] = target: T4, HSA (Homo sapiens, UniProt P02768); assay: Binding of Ethanthiol to HSA, gas chromatography (headspace); assay type: in vitro ADME; conditions: 40 mg HSA per 1 ml ET solution, overnight, equilibrium
T4 construct: Humanserumalbumin (HSA); purchased Behring, Marburg or Sigma, St. Louis (fatty-acid-free)
Method: as §1

[11] = test system: Methotrexat, Proteinbindung; assay: Uncoupling of toxin from protein binding, molar ratio K (Table III), toxin Methotrexat; conditions: molar ratio of uncoupler to toxin
From the text: Werte können Tabelle III entnommen werden.

[12] = test system: Ethanthiol, Proteinbindung; conditions: molar ratio of uncoupler to toxin; toxin Ethanthiol (Methanthiol)
[13] = target: T1, BSA; assay: Binding study of toxins to protein, ultrafiltration and photometry, BSA; conditions: bovine, bsa in pbs
[14] = target: T4, HSA; assay: Binding study of toxins to protein, ultrafiltration and photometry, HSA; assay type: in vitro ADME; conditions: HSA 80 mg in 2 ml PBS, depends on initial concentration, read-out: MTX in ungebundener Form
Method: Es wurden beide Verfahren der Druckerzeugung (Druckluft, Zentrifugation) erprobt. Dazu wurden die Proben (2 ml) in die Trennzelle gefüllt und ein Teil (150fu1) abgetrennt. Durch diesen kleinen Probenverlust wird das Gleichgewicht der Probe nur schwach gestört. Die Konzentrationen der einzelnen Substanzen (Toxin und Protein) wurden photometrisch mit einem Mehrkomponentenanalyseprogramm ermittelt. Beide Meßverfahren führten zu den gleichen Ergebnissen. Bevorzugt ist das Verfahren der Ultrafiltration mit Hilfe der Zentrifugation. Dieses Verfahren erlaubt einen höheren Probendurchsatz als das Verfahren mit Druckluft. Die verwendeten Proteinkonzentrationen waren physiologisch (Albumin 40 g/l; Fibrinogen 4 g/l). Aus den bekannten Anfangskonzentrationen und der gemessenen Konzentration an freiem ungebundenen Toxin lassen sich die Bindungsparameter sowie die Adsorptionsisothermen punktweise ermitteln.
Das freie ungebundene Toxin wurde durch Ultrafiltration gewonnen und die Konzentration photometrisch mit Hilfe der Mehrkomponentenanalyse bestimmt. Die Ausgangsproben enthielten 80 mg Protein und wurden mit PBS auf 2 ml aufgefüllt (physiologische Konzentration). Die Toxinmenge wurde zwischen 100 und 1GOO/ug variiert. Es zeigten sich deutliche Unterschiede zwischen BSA und HSA.

[15] = target: T1, BSA; assay: Competitive adsorption of fatty acids and Ethanthiol on BSA; set-up: species or system Rind; conditions: rising oleic acid concentration
From the text: Aus der Literatur ist bekannt, daß Fettsäuren eine starke Proteinbindung aufweisen. Proben, die Thiol und ölsäure (einfach ungesättigte Fettsäure) enthielten, zeigten abnehmende Thioladsorption bei steigender ölsäurekonzentration.

T1 sequence (P02769 25-607): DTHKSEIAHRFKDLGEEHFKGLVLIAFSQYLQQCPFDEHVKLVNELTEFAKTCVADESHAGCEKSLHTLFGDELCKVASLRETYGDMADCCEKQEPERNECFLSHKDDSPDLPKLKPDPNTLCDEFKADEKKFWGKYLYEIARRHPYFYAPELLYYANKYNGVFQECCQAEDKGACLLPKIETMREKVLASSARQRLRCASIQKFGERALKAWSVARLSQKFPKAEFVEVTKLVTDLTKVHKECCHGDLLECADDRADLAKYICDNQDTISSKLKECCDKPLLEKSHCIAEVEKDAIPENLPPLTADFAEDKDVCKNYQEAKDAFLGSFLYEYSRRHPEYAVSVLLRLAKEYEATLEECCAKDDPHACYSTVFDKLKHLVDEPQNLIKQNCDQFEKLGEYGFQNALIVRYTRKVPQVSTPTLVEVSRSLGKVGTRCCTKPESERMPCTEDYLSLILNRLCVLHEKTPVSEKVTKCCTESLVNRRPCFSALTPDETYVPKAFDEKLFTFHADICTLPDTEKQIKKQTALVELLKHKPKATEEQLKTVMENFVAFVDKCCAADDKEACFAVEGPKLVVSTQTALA
T4 sequence (P02768 25-609 limits assumed): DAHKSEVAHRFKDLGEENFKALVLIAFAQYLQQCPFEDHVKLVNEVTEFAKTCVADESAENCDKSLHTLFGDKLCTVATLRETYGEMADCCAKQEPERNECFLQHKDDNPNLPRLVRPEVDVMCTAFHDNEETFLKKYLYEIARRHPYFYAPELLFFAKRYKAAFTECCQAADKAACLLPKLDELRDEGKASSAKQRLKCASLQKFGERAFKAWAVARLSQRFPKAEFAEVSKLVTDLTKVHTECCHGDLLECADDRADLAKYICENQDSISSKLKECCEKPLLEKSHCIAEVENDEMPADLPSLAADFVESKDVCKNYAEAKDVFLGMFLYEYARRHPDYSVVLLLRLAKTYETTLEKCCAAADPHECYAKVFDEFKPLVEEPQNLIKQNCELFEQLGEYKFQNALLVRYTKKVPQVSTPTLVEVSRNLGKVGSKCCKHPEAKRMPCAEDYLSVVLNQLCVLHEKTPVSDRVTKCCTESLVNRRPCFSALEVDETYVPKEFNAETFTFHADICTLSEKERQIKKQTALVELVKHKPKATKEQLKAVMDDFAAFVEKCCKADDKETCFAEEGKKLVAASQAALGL
T2 sequence (P02769 25-607): as the sequence (P02769 25-607) above

Compound: CCN(CC)CCCC(C)Nc1ccnc2cc(Cl)ccc12 (racemic) [Chloroquin]
- Bindung von Pharmaka an Plasmaproteine ([1]; plasma): 55%

Compound: CN(C)CCCN1c2ccccc2Sc2ccc(Cl)cc21 [Chlorpromazin]
- Bindung von Pharmaka an Plasmaproteine ([1]; plasma): 90%

Compound: O=c1ccc2ccccc2o1 [Coumarin]
- Bindung von Pharmaka an Plasmaproteine ([1]; plasma): 99%

Compound: N[C@@H](CS)C(=O)O [Cystein]
- Freisetzung des noch vorhandenen Ethanthiols [2]: totale Freisetzung
- K-Werte für den gleichen Freisetzungsgrad an ET [3]: höher
- Freisetzung, Geschwindigkeit im Vergleich zu Glutathion [4]: schnellere Freisetzung
- Restkonzentration an ET nach Adsorption an AK mit vorheriger Freisetzung durch Entkoppler ([4]; uncoupler added directly): 15%
- Restkonzentration an ET nach Adsorption an AK mit vorheriger Freisetzung durch Entkoppler ([4]; uncoupler pre-adsorbed on AK): 4%
- Freisetzung, Geschwindigkeit im Vergleich zu Glutathion ([5]; K-Cystein = 115, K-Glutathion = 30): schneller
- adsorbierte Menge nach 45 Minuten [5]: ca. 97%

Compound: CC1=NS(=O)(=O)c2cc(Cl)ccc2N1 [Diazoxid]
- Bindung von Pharmaka an Plasmaproteine ([1]; plasma): 90%

Compound: CCS [Ethanthiol]
- fraction unbound at 20 h, 2170 µM [6]: 0.33
- von Fibrinogen gebundene molare Menge von Toxin im Vergleich zu Albumin [7]: annähernd die gleiche molare Menge
- fraction unbound at 18 h, 2170 µM ([8]; ET-Konzentration, % des Ausgangswerts): 0.05
- fraction unbound ([8]; Ethanthiol an BSA gebunden): ~0.05
- fraction unbound ([8]; Konzentration an ET, % der Ausgangskonzentration): ~0.11
- fraction unbound ([8]; freie Thiolkonzentration, % der Ausgangskonzentration): 0.02 to 0.05
- Adsorption des Ethanthiols an BSA bis zur Nachweisgrenze dauert [9]: ≤ 6 Stunden
- Zeit, nach der 50% der ET-Menge gebunden sind ([9]; 40 mg BSA, 1 ml ET solution 2170 µmol/l, 37°C): ca. 3 Stunden
- Konzentration an ET, % der Ausgangskonzentration [10]: ca. 21%

Compound: Nc1nc2ncc(CNc3ccc(C(=O)N[C@@H](CCC(=O)O)C(=O)O)cc3)nc2c(=O)[nH]1 [Folsäure]
- K-Werte [11]: ca. 5

Compound: N[C@@H](CCC(=O)N[C@@H](CS)C(=O)NCC(=O)O)C(=O)O [Glutathion, red., Glutathion, reduziert]
- K-Werte [12]: ca. 100
- Entkopplung ([4]; ET rises again after final addition of Cystein): keine 100%ige Entkopplung
- Restkonzentration an ET nach Adsorption an AK mit vorheriger Freisetzung durch Entkoppler ([4]; uncoupler added directly): 15%
- Restkonzentration an ET nach Adsorption an AK mit vorheriger Freisetzung durch Entkoppler ([4]; uncoupler pre-adsorbed on AK): 16%
- adsorbierte Menge nach 45 Minuten [5]: ca. 95%

Compound: CN(C)CCCN1c2ccccc2CCc2ccccc21 [Imipramin]
- Bindung von Pharmaka an Plasmaproteine ([1]; plasma): 90%

Compound: NNC(=O)c1ccncc1 [Isoniazid]
- Bindung von Pharmaka an Plasmaproteine [1]: 100%

Compound: Nc1nc2c(c(=O)[nH]1)N(C=O)C(CNc1ccc(C(=O)N[C@@H](CCC(=O)O)C(=O)O)cc1)CN2 (some centres unmarked) [Leucoverin]
- K-Werte [11]: ca. 5

Compound: CN(Cc1cnc2nc(N)nc(N)c2n1)c1ccc(C(=O)N[C@@H](CCC(=O)O)C(=O)O)cc1 [Methotrexat]
- fraction unbound [13]: 0.1 to 0.25
- Bindung von Pharmaka an Plasmaproteine ([1]; plasma): 80%
- fraction unbound [14]: 0.3 to 0.4

Compound: O=C(O)c1ccccc1O [Salicylsäure]
- Bindung von Pharmaka an Plasmaproteine ([1]; plasma): 80%
- K-Werte [11]: ca. 5

Compound: O=C1OC(c2ccc(O)c(S(=O)(=O)O)c2)(c2ccc(O)c(S(=O)(=O)O)c2)c2c(Br)c(Br)c(Br)c(Br)c21 [Sulfobromphthalein]
- K-Werte [11]: ca. 5

Compound: CCCCCCCC/C=C\CCCCCCCC(=O)O [ölsäure]
- Bindung von Ethanthiol an BSA durch Zugabe von ölsäure [15]: behindert oder gar blockiert

Compound: Phenylbutazon
- Bindung von Pharmaka an Plasmaproteine ([1]; plasma): 98%
- K-Werte [11]: ca. 2
